The record followed here is patent US20100168097A1, “Non-Nucleoside Reverse Transcriptase Inhibitors” (priority 2005, published 2010).

Read-outs that look alike come from different tables or passages of the source.

Test [1] deals with HIV-1 RT enzyme (Human immunodeficiency virus type 1 group M subtype B, UniProt P04585). Briefly: Assay for inhibition of HIV reverse transcriptase (RNA-dependent DNA polymerase, SPA). The test is classed as biochemical. The settings on record: HIV-1 RT enzyme 1 nM, 1 hour at 37° C. The procedure:
(§1) 100 μL reaction mixtures were initiated with a combination of primer-template substrate (10 nM final concentration) and dNTPs (0.6 μM dNTPs, 0.75 μM [^3H]-dGTP). The heterodimeric nucleic acid substrate was generated by annealing the DNA primer pD500 (described in Shaw-Reid et al., J. Biol. Chem., 278: 2777-2780; obtained from Integrated DNA Technologies) to t500, a 500 nucleotide RNA template created by in vitro transcription (see Shaw-Reid et al., J. Biol. Chem., 278: 2777-2780). After 1 hour incubation at 37° C., reactions were quenched by 10 μL streptavidin scintillation proximity assay beads (10 mg/mL, from Amersham Biosciences) in 0.5 M EDTA, pH 8. Microtiter plates were incubated an additional 10 minutes at 37° C. prior to quantification via Topcount (Packard).

For test [2], the target named is T1, mutant HIV reverse transcriptase, Y181C mutation (Human immunodeficiency virus type 1 group M subtype B, UniProt P04585, Y768C).
T1 construct: made in house
Briefly: Analogous RT inhibition assay, Y181C mutant. The test is classed as biochemical. The protocol:
as §1
(§2) Analogous assays were conducted substituting mutant HIV strains to determine the […] inhibition of compounds of the present invention against mutant HIV reverse transcriptase. In one strain the reverse transcriptase has the Y181C mutation and in the other strain the reverse transcriptase has the K103N mutation. The mutations were generated with the […] site-directed mutagenesis kit (Stratagene).

Test [3] has as its target T2, mutant HIV reverse transcriptase, K103N mutation (Human immunodeficiency virus type 1 group M subtype B, UniProt P04585, K690N).
T2 construct: made in house
Briefly: Analogous RT inhibition assay, K103N mutant. The note with it: K103N mutant RT; tested up to 20 micromolar; read-out: IC50, K103N mutant assay. Format: biochemical. The protocol: as §1, §2

Test [4] deals with acute HIV infection of T-lymphoid cells. Briefly: Assay for inhibition of HIV replication (spread assay). Format: cell-based. The settings on record: Human immunodeficiency virus 1; inhibition of HIV replication in T-lymphoid cells. The procedure:
An assay for the inhibition of acute HIV infection of T-lymphoid cells (alternatively referred to herein as the “spread assay”) was conducted in accordance with Vacca, J. P. et al., Proc. Natl. Acad. Sci. USA 1994, 91: 4096. […] The compounds of Examples 2-4 and 22 were not tested.

The mark [5] stands for this setting: Y181C mutant RT, tested up to 20 micromolar, read-out: IC50, Y181C mutant assay.

Usually IC50 stands for the point on the concentration scale where inhibition reaches its midpoint. The IC95 is the point of the concentration-response curve where the effect stands at 95%. Read a low IC95 as greater potency.

As for `O=S(=O)(c1ccccc1)c1c(-c2ncc(-c3ccncc3)s2)[nH]c2ccc(Cl)cc12` [Example 2, 5-chloro-3-(phenylsulfonyl)-2-(5-pyridin-4-yl-1,3-thiazol-2-yl)-1H-indole], in test [1], the IC50 worked out at 4000 nM.
`O=S(=O)(c1ccccc1)c1c(-c2noc(-c3ccncc3)n2)[nH]c2ccc(Cl)cc12` [Example 10, 5-chloro-3-(phenylsulfonyl)-2-(5-pyridin-4-yl-1,2,4-oxadiazol-3-yl)-1H-indole]: the figures for the IC50 in test [2] and in test [3] were 1000 to 20000 nM and over 20000 nM, respectively. For the same compound, the 95% effect concentration (IC95) in test [4] is under 1000 nM.
Take `O=S(=O)(c1ccccc1)c1c(-c2noc(Cc3ccccc3)n2)[nH]c2ccc(Cl)cc12` [Example 14, 2-(5-benzyl-1,2,4-oxadiazol-3-yl)-5-chloro-3-(phenylsulfonyl)-1H-indole]: the 50% inhibitory concentration (IC50) in test [2] (setting [5]) and in test [3] was over 20000 nM in each case. The same compound gave an IC95 in test [4] of under 1000 nM.
For `Cc1cnc(-c2[nH]c3ccc(Br)cc3c2S(=O)(=O)N2CCCC2)[nH]1` [Example 16, 5-Bromo-2-(4-methyl-1H-imidazol-2-yl)-3-(pyrrolidin-1-ylsulfonyl)-1H-indole], the IC50 in test [2] and in test [3] was under 1000 nM throughout. Moreover, the concentration for an effect of 95% (IC95) in test [4] was under 1000 nM.
Take `Cc1nc(-c2[nH]c3ccc(Cl)cc3c2S(=O)(=O)c2ccccc2)no1` [Example 12, 5-chloro-2-(5-methyl-1,2,4-oxadiazol-3-yl)-3-(phenylsulfonyl)-1H-indole]: the IC50 in test [2] (setting [5]) and in test [3] was over 20000 nM in each case. Besides, in test [4], the 95% effect concentration (IC95) is under 1000 nM.
Consider `O=S(=O)(c1c(-c2ncc(-c3ccccc3)[nH]2)[nH]c2ccc(Br)cc12)N1CCCC1` [Example 23, 5-bromo-2-(4-phenyl-1H-imidazol-2-yl)-3-(pyrrolidin-1-ylsulfonyl)-1H-indole], for which the IC50 is over 20000 nM in test [2] (setting [5]) and under 1000 nM in test [3]. Further, the concentration for an effect of 95% (IC95) in test [4] was under 1000 nM.
As for `O=S(=O)(c1c(-c2nc(-c3ccc(F)c(F)c3)c[nH]2)[nH]c2ccc(Br)cc12)N1CCCC1` [Example 26, 5-bromo-2-[4-(3,4-difluorophenyl)-1H-imidazol-2-yl]-3-(pyrrolidin-1-ylsulfonyl)-1H-indole], the IC50 in test [2] (setting [5]) was over 20000 nM; in test [3], under 1000 nM. The same compound had a concentration for an effect of 95% (IC95) in test [4] of under 1000 nM.
